# PMC5122887, “Identification of ER-000444793, a Cyclophilin D-independent inhibitor of mitochondrial permeability transition, using a high-throughput screen in cryopreserved mitochondria” (Scientific Reports, 2016)
# Molecular target: T1, Cyclophilin D (CypD; rhCypD) (Homo sapiens, UniProt P30405)
# T1 construct: gene PPIF; amino acids 44 to 207 of full length human CypD, C-terminal His-tag
# Assay: HTRF/TR-FRET displacement of CsA-d2 from His-tagged rhCypD; also inhibits PPIase activity (IC50 […])
# Type: binding
# T1 sequence (P30405 44-207): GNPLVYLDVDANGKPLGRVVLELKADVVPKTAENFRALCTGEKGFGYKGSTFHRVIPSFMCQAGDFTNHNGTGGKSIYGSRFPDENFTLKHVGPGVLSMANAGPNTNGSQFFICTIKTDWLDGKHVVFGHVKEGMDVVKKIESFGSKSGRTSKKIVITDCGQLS
compound,measurement,value
"CC[C@H]1C[C@H](C)[C@@]2(NC1=O)O[C@@H](C[C@H](O)[C@@H](C)CC/C=C/C=C(\C)[C@@H]1C/C=C/C=C/[C@H](O)[C@H](C)[C@@H](O)[C@@H](CCC(C)=O)C(=O)N[C@@H](C(C)C)C(=O)N[C@@H](Cc3cccc(O)c3)C(=O)N3CCC[C@H](N3)C(=O)O1)[C@H](C)[C@H](O)[C@@H]2C [SfA, sanglifehrin A]",IC50,5 nM
